Here are results for 24 compounds from US10457687B2, “Aminoacid derivatives, a process for their preparation and pharmaceutical compositions containing them” (LES LABORATOIRES SERVIER, priority 2015, dated 2019).

For orientation: IC50 means the concentration needed to halve the response being measured.

Molecules are shown by their SMILES.

Sequence of Mcl-1 protein (Q07820 whole entry): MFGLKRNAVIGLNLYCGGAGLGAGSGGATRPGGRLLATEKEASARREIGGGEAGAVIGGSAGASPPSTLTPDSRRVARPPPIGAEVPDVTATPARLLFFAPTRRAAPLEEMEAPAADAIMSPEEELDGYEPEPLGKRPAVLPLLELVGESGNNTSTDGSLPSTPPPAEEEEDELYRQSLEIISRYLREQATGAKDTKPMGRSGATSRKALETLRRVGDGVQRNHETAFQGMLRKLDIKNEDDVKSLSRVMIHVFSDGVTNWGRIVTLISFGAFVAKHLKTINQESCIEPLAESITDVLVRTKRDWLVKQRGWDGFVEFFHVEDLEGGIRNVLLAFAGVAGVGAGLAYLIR

The first assay has as its target Mcl-1 protein (Homo sapiens, UniProt Q07820). Nature of the assay: Inhibition of Mcl-1 by the fluorescence polarisation technique (Method 1 or Method 2). It is filed as binding. To be noted: fluorescence polarisation, Fluorescein labelled ligand; Method 1 (not underlined) or Method 2 (underlined); read-out: IC50 (μM) Mcl-1 FP. Put shortly:
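Fluorescence polarisation competition of 11-point compound dilutions (5% DMSO final) against fluorescein-labelled ligand for Mcl-1. Method 1: 1 nM ligand, 5 nM protein in 10 mM HEPES, 150 mM NaCl, 0.05% Tween 20, pH 7.4; Method 2: 10 nM ligand, 10 nM protein in 20 mM Na2HPO4, 1 mM EDTA, 50 mM NaCl, pH 7.4.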
For orientation: Fluorescence polarisation rises when a labelled molecule tumbles more slowly, as on binding a larger partner.
In the case of `CCc1sc2ncnc(NC(Cc3ccccc3OCCN(C)C)C(=O)O)c2c1-c1cccc(Cl)c1C` [Example 156, N-[(5Sa)-5-(3-chloro-2-methylphenyl)-6-ethylthieno[2,3-d]pyrimidin-4-yl]-2-[2-(dimethylamino)ethoxy]-D-phenylalanine], the half-maximal inhibitory concentration (IC50) amounted to 0.309 µM.
On the same count and under the same terms, to `CCc1sc2ncnc(NC(Cc3ccccc3)C(=O)O)c2c1-c1cccc2c1c(Cl)cn2CCN1CCCC1` [Example 233, N-((5Sa)-5-{3-chloro-1-[2-(pyrrolidin-1-yl)ethyl]-1H-indol-4-yl}-6-ethyl-thieno[2,3-d]pyrimidin-4-yl)-D-phenylalanine] belongs 3.41 µM; to `CCc1sc2ncnc(N[C@@H](C(=O)O)c3ccccc3)c2c1-c1cccc2ccccc12` (single isomer, unassigned) [Example 160], 11.7 µM; to `C/C=C\c1sc2ncnc(N[C@H](Cc3ccccc3)C(=O)O)c2c1-c1cccc2ccccc12` [Example 105, N-[(5Ra)-5-(naphthalen-1-yl)-6-((1Z)-prop-1-en-1-yl)thieno[2,3-d]pyrimidin-4-yl]-D-phenylalanine], 0.704 µM.
On the same count and under the same terms, to `CCOC(=O)C(Cc1ccccc1OCc1ccnc(-c2ccccc2OCCOC)n1)Nc1ncnc2sc(-c3ccc(F)cc3)c(-c3ccc(OCCN(C)C)c(Cl)c3C)c12` [Example 260, ethyl N-[(5Sa)-5-{3-chloro-4-[2-(dimethylamino)ethoxy]-2-methylphenyl}-6-(4-fluorophenyl)thieno[2,3-d]pyrimidin-4-yl]-2-({2-[2-(2-methoxyethoxy)phenyl]pyrimidin-4-yl}methoxy)-D-phenylalaninate] belongs 1.98 µM; to `CCc1sc2ncnc(NC(Cc3ccccc3)C(=O)O)c2c1-c1cccc2ccn(C)c12` [Example 83, N-[6-ethyl-(5Sa)-5-(1-methyl-1H-indol-7-yl)thieno[2,3-d]pyrimidin-4-yl]-D-phenylalanine], 0.258 µM; to `CC=Cc1sc2ncnc(NC(Cc3ccccc3)C(=O)O)c2c1-c1cccc2ccccc12` [Example 108, N-{(5Sa)-5-(naphthalen-1-yl)-6-[(1E)-prop-1-en-1-yl]thieno[2,3-d]pyrimidin-4-yl}-D-phenylalanine], 0.079 µM.
Still for that read-out and setting: then `CCc1sc2ncnc(N[C@H](CC3CCCCC3)C(=O)O)c2c1-c1cccc2[nH]ccc12` (single isomer, unassigned) [Example 242, 3-cyclohexyl-N-[6-ethyl-5-(1H-indol-4-yl)thieno[2,3-d]pyrimidin-4-yl]-D-alanine], with 0.091 µM; and `COc1ccccc1CC(Nc1ncnc2sc(C(C)C)c(-c3cccc(Cl)c3C)c12)C(=O)O` [Example 223, N-[(5Sa)-5-(3-chloro-2-methylphenyl)-6-(propan-2-yl)thieno[2,3-d]pyrimidin-4-yl]-2-methoxy-D-phenylalanine], with 0.086 µM; and `CCc1sc2ncnc(NC(Cc3c(F)cccc3F)C(=O)O)c2c1-c1cccc(Cl)c1C` [Example 131, N-[(5Sa)-5-(3-chloro-2-methylphenyl)-6-ethylthieno[2,3-d]pyrimidin-4-yl]-2,6-difluoro-D-phenylalanine], with 0.495 µM.
For `CCc1sc2ncnc(N[C@H](CC3CC3)C(=O)O)c2c1-c1cccc2ccccc12` [Example 159, 3-cyclopropyl-N-[6-ethyl-5-(naphthalen-1-yl)thieno[2,3-d]pyrimidin-4-yl]-D-alanine], the IC50 is 1.77 µM.
In the case of `CCc1sc2ncnc(NC(Cc3ccccc3C#N)C(=O)O)c2c1-c1cccc(Cl)c1C` [Example 127, N-[(5Sa)-5-(3-chloro-2-methylphenyl)-6-ethylthieno[2,3-d]pyrimidin-4-yl]-2-cyano-D-phenylalanine], the 50% inhibitory concentration (IC50) came to 0.913 µM.
Same read-out and setting: to `CCc1sc2ncnc(NC(Cc3ccccc3)C(=O)O)c2c1-c1cncc2ccccc12` [Example 81, N-[6-ethyl-(5Sa)-5-(isoquinolin-4-yl)thieno[2,3-d]pyrimidin-4-yl]-D-phenylalanine] belongs 20.2 µM; to `CCc1sc2ncnc(NC(Cc3ccccc3)C(=O)O)c2c1-c1ccc(OCCN2CCN(C)CC2)c(Cl)c1C` [Example 62, N-((5Sa)-5-{3-chloro-2-methyl-4-[2-(4-methylpiperazin-1-yl)ethoxy]phenyl}-6-ethylthieno[2,3-d]pyrimidin-4-yl)-D-phenylalanine], 0.06 µM; to `CCc1sc2ncnc(NC(Cc3ccccc3)C(=O)O)c2c1-c1cccc(F)c1C` [Example 70, N-[6-ethyl-(5Ra)-5-(3-fluoro-2-methylphenyl)thieno[2,3-d]pyrimidin-4-yl]-D-phenylalanine], 0.974 µM.
On to `CCc1sc2ncnc(NC(Cc3ccccc3)C(=O)O)c2c1-c1cc(Cl)c(O)c(Cl)c1C` [Example 52, N-[(5Ra)-5-(3,5-dichloro-4-hydroxy-2-methylphenyl)-6-ethylthieno[2,3-d]pyrimidin-4-yl]-D-phenylalanine], for which the IC50 amounted to 0.301 µM.
On the same count and under the same terms, to `CCc1sc2ncnc(N[C@H](Cc3ccccc3)C(=O)O)c2c1-c1cccc2ncccc12` [Example 80, N-[6-ethyl-5-(quinolin-5-yl)thieno[2,3-d]pyrimidin-4-yl]-D-phenylalanine] belongs 0.487 µM.
The same measure, in the same setting: then `CCc1sc2ncnc(NC(Cc3ccccc3F)C(=O)O)c2c1-c1cccc2ccccc12` [Example 180, N-[6-ethyl-(5Ra)-5-(naphthalen-1-yl)thieno[2,3-d]pyrimidin-4-yl]-2-fluoro-D-phenylalanine], with 2.1 µM.

The same assay, now with this note: partial inhibitors; @ 50 μM test compound.
As for `CCc1sc2ncnc(N[C@H](C(=O)O)[C@H](O)c3ccccc3)c2c1-c1cccc(Cl)c1C` [Example 124, (βR)—N-[(5Ra)-5-(3-chloro-2-methylphenyl)-6-ethylthieno[2,3-d]pyrimidin-4-yl]-beta-hydroxy-L-phenylalanine], the “percentage fluorescence polarisation inhibition, Mcl-1 FP” value worked out at 75.7% @ 50 μM.

The same assay, now with this note: partial inhibitors; @ 100 μM test compound; 100 µM.
With `CC(O)c1sc2ncnc(N[C@H](Cc3ccccc3)C(=O)O)c2c1-c1cccc2ccccc12` (single isomer, unassigned) [Example 204, N-[6-(1-hydroxyethyl)-5-(naphthalen-1-yl)thieno[2,3-d]pyrimidin-4-yl]-D-phenylalanine], the “percentage fluorescence polarisation inhibition, Mcl-1 FP” value came to 44.8% @ 100 μM.

Staying with this assay, now noted: partial inhibitors; @ 200 μM test compound.
On to `CC(C)(O)c1sc2ncnc(NC(Cc3ccccc3)C(=O)O)c2c1-c1cccc2ccccc12` [Example 209, N-[6-(2-hydroxypropan-2-yl)-(5Ra)-5-(naphthalen-1-yl)thieno[2,3-d]pyrimidin-4-yl]-D-phenylalanine], for which the “percentage fluorescence polarisation inhibition, Mcl-1 FP” value was 56.85% @ 200 μM.
For the compound `CCc1sc2ncnc(N[C@H](Cc3c[nH]c4ccccc34)C(=O)O)c2c1-c1cccc2ccccc12` [Example 184, N-[6-ethyl-(5Ra)-5-(naphthalen-1-yl)thieno[2,3-d]pyrimidin-4-yl]-D-tryptophan], the “percentage fluorescence polarisation inhibition, Mcl-1 FP” value turned out to be 76.8% @ 200 μM.
Still for that read-out and setting: then `CCc1sc2ncnc(N[C@H](Cc3ccccc3)C(=O)O)c2c1-c1ccnc(Cl)c1C` [Example 77, N-[(5Ra)-5-(2-chloro-3-methylpyridin-4-yl)-6-ethylthieno[2,3-d]pyrimidin-4-yl]-D-phenylalanine], with 75.45% @ 200 μM; and `CCc1sc2ncnc(NC(Cc3ccccc3)C(=O)OC)c2c1-c1cccc2ccccc12` [Example 255, methyl N-[6-ethyl-(5Ra)-5-(naphthalen-1-yl)thieno[2,3-d]pyrimidin-4-yl]-D-phenylalaninate], with 41.08% @ 200 μM.
